Test results: ChEMBL document CHEMBL1125393, “5-(Aminomethyl)-3-aryldihydrofuran-2(3H)-ones, a new class of monoamine oxidase-B inactivators” (J Med Chem, 1992)

Columns and labels:
[1] = target: T1, Amine oxidase [flavin-containing] B (Bos taurus, UniProt P56560); test: Inactivation constant against beef liver mitochondrial monoamine oxidase-B (MAO-B); settings: cattle
T1 sequence (P56560 whole entry): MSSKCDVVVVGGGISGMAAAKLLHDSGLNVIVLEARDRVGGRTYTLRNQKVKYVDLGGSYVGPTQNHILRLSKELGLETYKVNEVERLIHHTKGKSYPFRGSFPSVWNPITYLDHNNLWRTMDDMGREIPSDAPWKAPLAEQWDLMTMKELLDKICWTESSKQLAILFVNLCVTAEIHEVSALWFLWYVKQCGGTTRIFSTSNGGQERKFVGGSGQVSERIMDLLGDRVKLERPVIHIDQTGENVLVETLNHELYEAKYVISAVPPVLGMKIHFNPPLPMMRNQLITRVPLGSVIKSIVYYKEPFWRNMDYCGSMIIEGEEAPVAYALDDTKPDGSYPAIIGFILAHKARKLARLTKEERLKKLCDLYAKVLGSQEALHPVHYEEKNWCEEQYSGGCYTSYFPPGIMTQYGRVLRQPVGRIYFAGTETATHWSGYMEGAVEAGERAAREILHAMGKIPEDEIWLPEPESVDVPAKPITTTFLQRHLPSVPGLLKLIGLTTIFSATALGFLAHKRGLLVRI

[2] = target: T1, Amine oxidase [flavin-containing] B; test: Inhibitory constant against beef liver mitochondrial monoamine oxidase-B (MAO-B)

COc1ccc([C@H]2C[C@@H](CN)OC2=O)cc1
kinact [1]: 0.074 s⁻¹ | Ki [2]: 6.67 mM

COc1ccc(N2CC(CN)OC2=O)cc1 (stereo not given)
kinact [1]: 0.0133 s⁻¹ | Ki [2]: 12.5 mM

COc1ccc([C@@H]2C[C@@H](CN)OC2=O)cc1
kinact [1]: 0.383 s⁻¹ | Ki [2]: 18.2 mM

NC[C@@H]1C[C@@H](c2ccccc2)C(=O)O1
kinact [1]: 0.0357 s⁻¹ | Ki [2]: 5.1 mM

NC[C@@H]1C[C@H](c2ccccc2)C(=O)O1
kinact [1]: 0.0428 s⁻¹ | Ki [2]: 4.2 mM
